One block for each molecule: values may come before it.
Experiments:
[1] = target: T1, PARP-1 (Homo sapiens, UniProt P09874); test: PARP-1 inhibitory activity, HT universal colorimetric PARP assay kit (Trevigen); assay type: biochemical; details: estimation as calculated from a 4 point dose response curve; read-out: PARP-1 activity in vitro IC50
T1 construct: purchased Trevigen
Method: The compounds were tested for PARP-1 inhibitory activity by using HT universal colorimetric PARP assay kit obtained from Trevigen, following manufacturer's protocol.

[2] = system: SW620 colorectal tumor cells (xenograft tumors); test: In vivo antitumor efficacy in combination with temozolomide (TMZ) in an SW620 tumor model; design: species or system Female athymic nude mice; details: for Tumor growth delay: time to RTV4 treated minus control
Method: On basis of the in vitro data, the ability of selected compounds to potentiate the antitumor activity of the methylating chemotherapeutic agent, temozolomide, was evaluated in an SW 620 tumor model.
Animals bearing SW 620 xenograft tumors were treated with the compounds in combination with TMZ (50 mg/Kg, po) once daily for 5 consecutive days, after which the tumors were left to grow out.
Female athymic nude mice were used for antitumor in vivo studies. SW620 colorectal tumor cells (1×10^7 cells per animal) were implanted s.c. into one flank of each mouse. When tumors were palpable (10-12 days after implantation), animals were treated (n=6-8/group) with five daily doses of temozolomide administered per os as a suspension in 0.5% methyl cellulose at 50 mg/kg either alone or in combination with a five daily per os administrations of PARP inhibitor at different doses. Tumor growths were measured using two-dimensional caliper measurements. Tumor volume was calculated using the equation a^2×b/2, where a is the smallest measurement and b is the largest. Data are presented as median relative tumor volumes (RTV), defined as the calculated tumor volume divided by the calculated tumor volume on the initial day of treatment (day 0). Thus, on day 0, the RTV value is 1 and RTV4 is when the tumor is four times as large as its initial value. Control animals were treated with vehicle ([…] in methyl cellulose) alone tumor growth delay (TGD)=Time to RTV4 in treated group−time to RTV4 control.

[3] = compound 10 mg/kg, po + TMZ 50 mg/kg, once daily for 5 days, compound 45 min before TMZ
[4] = compound 10 mg/kg, po + TMZ 50 mg/kg, once daily for 5 days

T1 sequence (P09874 whole entry): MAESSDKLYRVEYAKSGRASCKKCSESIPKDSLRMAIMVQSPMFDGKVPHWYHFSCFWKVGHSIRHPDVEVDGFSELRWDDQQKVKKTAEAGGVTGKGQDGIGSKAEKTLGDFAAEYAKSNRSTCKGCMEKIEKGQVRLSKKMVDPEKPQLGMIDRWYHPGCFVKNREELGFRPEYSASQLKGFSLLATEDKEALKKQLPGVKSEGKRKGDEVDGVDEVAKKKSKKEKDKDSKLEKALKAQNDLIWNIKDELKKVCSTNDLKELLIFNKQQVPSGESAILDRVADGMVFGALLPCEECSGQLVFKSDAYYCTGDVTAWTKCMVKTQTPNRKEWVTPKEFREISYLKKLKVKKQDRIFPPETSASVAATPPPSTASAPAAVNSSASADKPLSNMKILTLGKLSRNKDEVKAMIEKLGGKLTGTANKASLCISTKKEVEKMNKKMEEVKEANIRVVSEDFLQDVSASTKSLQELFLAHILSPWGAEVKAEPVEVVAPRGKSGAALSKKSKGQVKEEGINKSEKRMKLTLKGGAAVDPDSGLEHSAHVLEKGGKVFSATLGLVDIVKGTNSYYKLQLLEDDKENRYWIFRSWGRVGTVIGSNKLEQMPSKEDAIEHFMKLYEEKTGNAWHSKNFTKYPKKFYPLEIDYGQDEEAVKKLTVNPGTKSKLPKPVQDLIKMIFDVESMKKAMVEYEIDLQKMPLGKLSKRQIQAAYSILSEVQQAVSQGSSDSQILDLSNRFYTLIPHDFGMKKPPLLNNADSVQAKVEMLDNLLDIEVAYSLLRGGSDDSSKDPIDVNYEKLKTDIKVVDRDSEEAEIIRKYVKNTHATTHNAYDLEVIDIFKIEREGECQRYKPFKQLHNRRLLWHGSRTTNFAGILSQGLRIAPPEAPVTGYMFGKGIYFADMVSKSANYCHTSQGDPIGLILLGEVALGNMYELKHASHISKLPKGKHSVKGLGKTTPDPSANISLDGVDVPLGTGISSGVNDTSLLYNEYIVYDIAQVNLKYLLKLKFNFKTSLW

Compound: Cn1cc2c(n1)CN(C(=O)c1cc(Cc3n[nH]c(=O)c4ccccc34)ccc1F)C2 [Compound 35, 4-(4-fluoro-3-(2-methyl-2,4,5,6-tetrahydropyrrolo[3,4-c]pyrazole-5-carbonyl)benzyl) phthalazin-1(2H)-one]
IC50 [1]: 29.9 nM
Median time to RTV4 [2, 3]: 50 days
Tumor growth delay [2, 4]: 40 days

Compound: Cn1nnc2c(C(N)=O)ncn2c1=O [Temozolomide, reference compound]
Median time to RTV4 ([2]; Temozolomide alone 50 mg/kg, po, once daily for 5 consecutive days): 22 days
Tumor growth delay ([2]; Temozolomide alone 50 mg/kg, po, once daily for 5 days): 12 days

Compound: O=C(c1cc(Cc2n[nH]c(=O)c3ccccc23)ccc1F)N1Cc2cocc2C1 [Compound 20, 4-(3-(5,6-dihydro-4H-furo[3,4-c]pyrrole-5-carbonyl)-4-fluorobenzyl)phthalazin-1(2H)-one]
IC50 [1]: 11.8 nM
Median time to RTV4 ([2]; compound 50 mg/kg, po + TMZ 50 mg/kg, once daily for 5 days, compound 45 min before TMZ): 43 days
Tumor growth delay ([2]; compound 50 mg/kg, po + TMZ 50 mg/kg, once daily for 5 days): 33 days

The remaining molecules from weak to strong by IC50 [1], led by results:

IC50 [1]: 34.4 nM
Compound: O=C(c1cc(Cc2n[nH]c(=O)c3ccccc23)ccc1F)N1CC2CN(Cc3ccc(F)cc3F)CC2C1 (stereo not drawn) [Compound 19, 4-(3-(5-(2,4-difluorobenzyl)octahydropyrrolo[3,4-c]pyrrole-2-carbonyl)-4-fluorobenzyl)phthalazin-1(2H)-one]

IC50 [1]: 27.9 nM
Compound: Cn1ncc2c1CN(C(=O)c1cc(Cc3n[nH]c(=O)c4ccccc34)ccc1F)C2 [Compound 36]
Median time to RTV4 [2, 3]: 37 days
Tumor growth delay [2, 4]: 27 days
Median time to RTV4 ([2]; compound 30 mg/kg, po + TMZ 50 mg/kg, once daily for 5 days, compound 45 min before TMZ): 44 days
Tumor growth delay ([2]; compound 30 mg/kg, po + TMZ 50 mg/kg, once daily for 5 days): 34 days
Median time to RTV4 ([2]; compound 100 mg/kg, po + TMZ 50 mg/kg, once daily for 5 days, compound 45 min before TMZ): 65 days
Tumor growth delay ([2]; compound 100 mg/kg, po + TMZ 50 mg/kg, once daily for 5 days): 55 days

IC50 [1]: 18.4 nM
Compound: O=C(c1cc(Cc2n[nH]c(=O)c3ccccc23)ccc1F)N1CC2=C(C1)CS(=O)(=O)C2 [Compound 29, 4-(3-(2,2-dioxido-3,4,5,6-tetrahydro-1H-thieno[3,4-c]pyrrole-5-carbonyl)-4-fluorobenzyl)phthalazin-1(2H)-one]

IC50 [1]: 11.5 nM
Compound: O=C(c1cc(Cc2n[nH]c(=O)c3ccccc23)ccc1F)N1CC2CN(Cc3ccccc3)CC2C1 (single isomer, unassigned) [Compound 1, 4-(3-(5-benzyloctahydropyrrolo[3,4-c]pyrrole-2-carbonyl)-4-fluorobenzyl)phthalazin-1(2H)-one]
